The source of these data is PMC4949556, “Subtle Structural Differences Trigger Inhibitory Activity of Propafenone Analogues at the Two Polyspecific ABC Transporters: P‐Glycoprotein (P‐gp) and Breast Cancer Resistance Protein (BCRP)” (Chemmedchem, 2016).

Assay type in all cases: cell-based
Series [1] addresses T1, BCRP (Homo sapiens, UniProt Q9UNQ0).
T1 construct: expressed in transfected cells; host or cells: PLB985 human myeloid leukemia cells stably expressing BCRP (gift of B. Sarkadi and K. Nemet, Budapest)
Put plainly: BCRP inhibition: steady-state mitoxantrone accumulation in BCRP-expressing PLB985 cells (flow cytometry). The following applies: for IC50: BCRP IC50, mitoxantrone 7 μM, PLB985 BCRP cells, mean±SD, at least n=3 (11 a n=2); for Hill coefficient BCRP: Hill coefficient of IC50 measurement, mean ± SD of n experiments; for in vitro classification as BCRP inhibitor: IC50 below 10 μM considered active; for fold lower IC50 value for BCRP than for P-gp: ratio IC50 P-gp / IC50 BCRP. The protocol:
(§1) P‐gp and BCRP inhibitory activity was assessed by implementing an intracellular accumulation assay of daunorubicin or mitoxantrone in cells overexpressing P‐gp or BCRP, respectively. In a first run, the effect of compounds 5, 6, 10, 11, and 16 (Figure 2) at 100 μM final concentration was tested (Figure 3). All compounds showing an inhibitory effect of more than 50 % compared with full inhibition by the known inhibitors of P‐gp (verapamil) and BCRP (Ko143) were further processed, and IC50 values were determined (IC50 curves and Hill coefficients are available in Figure S1 and Table S3 in the Supporting Information). […] For P‐gp, nine compounds were classified as inhibitors (5 a, 5 b, 6 a, 10 a, 10 b, 11 b, 16 a, 16 b, 16 c).
(§2) Cell culture: The human myeloid leukemia PLB985 parental and stably expressing BCRP cell lines31 were kindly provided by B. Sarkadi (Institute of Enzymology, Research Centre for Natural Sciences, Budapest, Hungary) and K. Nemet (Creative Cell Ltd., Budapest, Hungary). Both cell lines were cultured in RPMI 1640 supplemented with 10 % FBS and 100 IU mL^−1 of penicillin and streptomycin. The human T‐lymphoblast cell line CCRF VCR1000, overexpressing P‐gp, was obtained by stepwise selection of CCRF‐CEM in vincristine‐containing medium32 and was kindly provided by V. Gekeler (Altana‐Pharma formerly Byk‐Gulden, Konstanz, Germany). CCRF VCR1000 cells were cultured in RPMI 1640 medium containing 20 % FBS and were treated regularly with vincristine (1 μg mL^−1) for about 72 h, followed by centrifugation (300 g, 5 min, RT) and resuspension in normal culture medium. All cell lines were maintained at 37 °C in an atmosphere containing 5 % CO2 with 95 % relative humidity.
(§3) Steady‐state accumulation experiments: For BCRP and P‐gp inhibition studies, the steady‐state accumulation of mitoxantrone (7 μM) and daunorubicin (3 μM), respectively, was performed as previously described.33 Briefly, cells were harvested, pelleted (300 g, 5 min, 4 °C), diluted to a concentration of 12×10^6 cells mL^−1 in HPMI (10 mM Hepes, 120 mM NaCl, 5 mM KCl, 0.4 mM MgCl2, 0.04 mM CaCl2, 10 mM glucose, 10 mM NaHCO3, 5 mM Na2HPO4, pH 7.4 with NaOH) and kept on ice for further processing. For each data point, the cell suspension (25 μL) was preincubated for 5 min at 37 °C with 2 % DMSO (25 μL) in HPMI alone (DMSO control) or containing different concentrations of test compound solutions. Thereafter, cells were preloaded with daunorubicin (50 μL) or mitoxantrone (50 μL) for 30 or 20 min at 37 °C, respectively, to reach a final concentration of 3 or 7 μM, respectively. […] Preloading was stopped by chilling cells on ice for 5 min followed by the addition of 400 μL ice‐cold PBS. Cells were pelleted (300 g, 5 min, 4 °C), the supernatant was discarded, and the cell pellet was resuspended in ice‐cold PBS (150 μL). Until measurement, cells were kept on ice and in the dark. Immediately before cell fluorescence measurement by flow cytometry (BD Accuri C6 and BD FACSCalibur, Becton Dickinson, San Jose, CA, USA; MACSQuant, MiltenyiBiotec GmbH, BergischGladbach, Germany), 50 μL of 4′,6‐diamidin‐2‐phenylindole solution (DAPI, 4 μg mL^−1 in PBS) was added to gate out dead cells. 100 μM verapamil and 1 μM Ko143 were used as positive controls for P‐gp and BCRP inhibition, respectively. […]
For orientation: A flow cytometer gives signals particle by particle.

Series [2] addresses T2, P-gp / BCRP (Homo sapiens, UniProt Q9UNQ0).
T2 construct: expressed in transfected cells; host or cells: PLB985 human myeloid leukemia cells stably expressing BCRP (gift of B. Sarkadi and K. Nemet, Budapest)
The description is as above. The following applies: human, pH 7.4, probe daunorubicin (3 µM) for P-gp; mitoxantrone (7 µM) for BCRP; IC50 P-gp / IC50 BCRP; read-out: selectivity index (SI) P-gp/BCRP. The method, then:
as §1, §2, §3

The target in series [3] is T3, P-gp (Homo sapiens, UniProt P08183).
T3 construct: was obtained by stepwise selection of CCRF‐CEM in vincristine‐containing medium; endogenous in cells; host or cells: CCRF VCR1000 (vincristine-selected subline of CCRF-CEM human T-lymphoblasts; gift of V. Gekeler)
Kind of series: P-gp inhibition: steady-state daunorubicin accumulation in P-gp-overexpressing CCRF VCR1000 cells (flow cytometry). The following applies: for Hill coefficient P-gp: Hill coefficient of IC50 measurement, mean ± SD of n experiments; for in vitro classification as P-gp inhibitor: IC50 below 10 μM considered active; for IC50: daunorubicin 3 μM, CCRF VCR1000 cells, mean±SD, at least n=3. The protocol: as §1, §2, §3

T2 sequence (Q9UNQ0 whole entry): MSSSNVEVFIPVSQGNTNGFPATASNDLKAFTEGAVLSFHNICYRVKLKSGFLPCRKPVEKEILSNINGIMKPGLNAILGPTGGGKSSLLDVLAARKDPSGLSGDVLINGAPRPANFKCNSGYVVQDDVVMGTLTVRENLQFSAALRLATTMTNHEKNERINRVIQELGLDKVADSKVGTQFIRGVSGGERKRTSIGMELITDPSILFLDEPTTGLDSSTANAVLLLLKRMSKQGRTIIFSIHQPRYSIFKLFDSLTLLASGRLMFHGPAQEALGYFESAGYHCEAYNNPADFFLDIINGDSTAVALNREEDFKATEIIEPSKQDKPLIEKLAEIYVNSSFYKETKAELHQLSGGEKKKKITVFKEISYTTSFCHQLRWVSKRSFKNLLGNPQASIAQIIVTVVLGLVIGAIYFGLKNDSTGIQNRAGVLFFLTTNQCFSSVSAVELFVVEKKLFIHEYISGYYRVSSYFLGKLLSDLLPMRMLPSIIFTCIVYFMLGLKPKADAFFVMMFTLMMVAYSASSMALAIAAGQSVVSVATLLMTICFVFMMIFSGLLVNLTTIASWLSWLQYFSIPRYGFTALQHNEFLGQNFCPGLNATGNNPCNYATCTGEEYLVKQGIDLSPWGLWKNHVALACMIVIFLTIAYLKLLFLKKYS
T1 sequence (Q9UNQ0 whole entry): as above
T3 sequence (P08183 whole entry): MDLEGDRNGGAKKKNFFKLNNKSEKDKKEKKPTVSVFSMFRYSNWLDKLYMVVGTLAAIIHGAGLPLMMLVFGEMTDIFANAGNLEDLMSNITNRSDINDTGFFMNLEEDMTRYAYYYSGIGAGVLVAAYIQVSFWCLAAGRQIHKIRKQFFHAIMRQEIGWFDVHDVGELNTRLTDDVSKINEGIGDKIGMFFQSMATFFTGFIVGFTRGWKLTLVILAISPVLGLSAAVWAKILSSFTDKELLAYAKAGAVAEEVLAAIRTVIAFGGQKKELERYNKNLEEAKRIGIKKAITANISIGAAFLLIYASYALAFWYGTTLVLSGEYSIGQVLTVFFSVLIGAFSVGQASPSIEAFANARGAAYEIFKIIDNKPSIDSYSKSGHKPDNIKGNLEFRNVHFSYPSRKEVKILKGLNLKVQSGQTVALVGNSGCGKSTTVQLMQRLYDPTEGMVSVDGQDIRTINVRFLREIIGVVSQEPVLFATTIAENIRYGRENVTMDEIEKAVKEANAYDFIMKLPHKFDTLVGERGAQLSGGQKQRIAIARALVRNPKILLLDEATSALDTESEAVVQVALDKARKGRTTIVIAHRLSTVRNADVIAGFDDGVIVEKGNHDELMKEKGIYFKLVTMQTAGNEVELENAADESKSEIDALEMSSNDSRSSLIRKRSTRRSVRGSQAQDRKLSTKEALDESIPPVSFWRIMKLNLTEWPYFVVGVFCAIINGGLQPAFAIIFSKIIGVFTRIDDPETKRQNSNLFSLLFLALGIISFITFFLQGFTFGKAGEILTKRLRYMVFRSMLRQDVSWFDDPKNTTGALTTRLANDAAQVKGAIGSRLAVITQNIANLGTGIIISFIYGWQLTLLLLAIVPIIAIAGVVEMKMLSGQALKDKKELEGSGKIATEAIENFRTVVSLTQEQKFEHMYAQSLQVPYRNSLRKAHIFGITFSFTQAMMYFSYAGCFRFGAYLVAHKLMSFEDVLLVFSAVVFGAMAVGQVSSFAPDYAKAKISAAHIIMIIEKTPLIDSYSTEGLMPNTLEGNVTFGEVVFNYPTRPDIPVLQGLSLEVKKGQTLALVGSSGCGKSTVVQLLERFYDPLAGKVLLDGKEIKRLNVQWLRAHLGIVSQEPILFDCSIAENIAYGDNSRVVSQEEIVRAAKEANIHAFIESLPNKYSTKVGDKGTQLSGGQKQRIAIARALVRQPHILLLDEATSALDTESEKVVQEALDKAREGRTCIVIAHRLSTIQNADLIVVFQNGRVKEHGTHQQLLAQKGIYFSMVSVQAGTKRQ

For `O=C(CCc1ccccc1)c1ccccc1OCC(O)CN1CC(=O)N2CCCC2C1=O` (centres unmarked) [Compound 6 a, 2‐(2‐Hydroxy‐3‐(2‐(3‐phenylpropanoyl)phenoxy)propyl)‐hexahydropyrrolo[1,2‐a]pyrazine‐1,4‐dione], in series [1], the IC50 came to 5.8 ± 1 µM, the “Hill coefficient BCRP” value is reported as 0.9±0.1 and the “in vitro classification as BCRP inhibitor” value is “inhibitors”. The selectivity ratio in series [2] turned out to be 0.27. In addition, in series [3], the “Hill coefficient P-gp” value is 2.6±0.4, the “in vitro classification as P-gp inhibitor” value is “inhibitors” and the IC50 was 1.6 ± 0.6 µM. Further, the “factor more active at P-gp than methoxy analogue 6 b” value in series [3] (P-gp, compared with 6 b) worked out at 7. For the same compound, the “fold more active at P-gp than analogue 11 a” value in series [3] (P-gp, compared with 11 a) is on record as “tenfold”. Moreover, in series [3] (ratio IC50 BCRP / IC50 P-gp), the “fold higher IC50 value for BCRP than for P-gp” value is “more than 2.6 fold”.

In the case of `COc1ccc(C(=O)CCc2ccccc2)c(OCC(O)CN2CC(=O)N3CCCC3C2=O)c1` (centres unmarked) [Compound 6 b, 2‐(2‐Hydroxy‐3‐(5‐methoxy‐2‐(3‐phenylpropanoyl)phenoxy)propyl)‐hexahydropyrrolo[1,2‐a]pyrazine‐1,4‐dione], in series [1], inhibition was half-maximal at 3.8 ± 0.6 µM (IC50), the “Hill coefficient BCRP” value amounted to 1.1±0.2, the “in vitro classification as BCRP inhibitor” value was “inhibitors” and the “fold lower IC50 value for BCRP than for P-gp” value was found to be 2.9 fold. The selectivity ratio in series [2] was 2.82. In series [3], the “Hill coefficient P-gp” value came to 1.5±0.2, the “in vitro classification as P-gp inhibitor” value is given as “borderline inhibitory activity” and half-maximal inhibition (IC50) was put at 11 ± 1 µM.

Turning to `COc1ccc(C(=O)CCc2ccccc2)c(OCCN2CC(=O)N3CCCC3C2=O)c1` (centres unmarked) [Compound 11 b, 2‐(2‐(5‐Methoxy‐2‐(3‐phenylpropanoyl)phenoxy)ethyl)‐hexahydropyrrolo[1,2‐a]pyrazine‐1,4‐dione], in series [1], 2.3 µM corresponded to half-maximal inhibition (IC50), the “Hill coefficient BCRP” value was determined as 1.1±0.2, the “in vitro classification as BCRP inhibitor” value was “inhibitors” and the “fold lower IC50 value for BCRP than for P-gp” value was determined as 2.7 fold. The selectivity ratio in series [2] turned out to be 2.7. For the same compound, in series [3], the “Hill coefficient P-gp” value was 1.5±0.1, the “in vitro classification as P-gp inhibitor” value is listed as “inhibitors” and the IC50 amounted to 6.2 ± 0.4 µM.

By IC50 is commonly meant the concentration that gives 50% inhibition. A low value points to greater potency.
